Test results taken from patent publication US4396625A, “Treatment of glaucoma or ocular hypertension and ophthalmic composition” (Sumitomo Chemical Company, Limited, priority 1980, dated 1983).
Where a name gives a salt, the structure may show the parent alone.

Key:
[1] = Stability / precipitation of ophthalmic solution on storage; type: physicochemical; settings: 40° C., 3 months
Experimental: To a part of distilled water required, was added 500 mg of compound (I) hydrochloride and the mixture was stirred at room temperature to dissolve the active ingredient. Next, D-mannitol 5 g, glycine 500 mg and Benzalkonium chloride 5 mg were added in this order and dissolved in the same way. After adjusting pH of the solution to 5.5 with hydrochloric acid, the mixture was added with distilled water to make the total volume to 100 ml. The solution was filtered under sterile conditions.
The following ophthalmic composition was prepared in the same way as stated in Example 4, using 100 mg of compound (I) acetate in place of 500 mg of compound (I) hydrochloride.
To a part of the required distilled water, was added 250 mg of compound (I) maleate, and the mixture was heated to 30° C. and stirred to dissolve the active ingredient. To this solution, 4 g of D-manitol, 1 g of glycine and 5 mg of Benzalkonium chloride were added and dissolved in this order. After adjusting pH of the solution to 6.0 with hydrochloric acid, the solution was added with distilled water to make the volume to 100 ml, and thus obtained solution was filtered under sterile conditions.

[2] = tested on: intra-ocular pressure of the eye; experiment: Intra-ocular pressure measurement after local (ophthalmic) administration in dogs; type: in vivo, dog (Beagle); settings: dog, 0.5 w/v %, one drop
Experimental: In the local administration tests, compound (I) was applied to one eye of healthy grown-up dog (male or female; body weight 10 to 14 kg; Beagle dog) being normal in sense of sight and other sensitive faculties and having no morphological abnormality in the eyes, and evaluated for the effect thereof.
The test ophthalmic composition was prepared according to the recipe of Example 4, so as to include 0.5 w/v % of compound (I) HCl salt.
(§1) One drop (about 0.04 ml) of the ophthalmic composition was applied to a conjunctival sac of one eye and a drop of physiologic saline was into the conjunctival sac of the other eye. Thus applied eyes were kept closed for 5 to 10 seconds to ensure the osmosis of the medicament administered. Intra-ocular pressure in the respective eye was measured by using an Alcon Pneumatonography, just before the treatment with said medicine, and 1 to 24 hours after said administration. At each time, one drop of 0.4% oxydibucaine HCl ophthalmic composition (Trade Mark: Benoxyl® 0.4%; Santen Seiyaku K.K.) was applied to and intra-ocular pressure was measured after 20 to 30 seconds thereafter.

[3] = tested on: intra-ocular pressure of the eye; experiment: Intra-ocular pressure measurement after ophthalmic administration in albino rabbits; type: in vivo; settings: rabbit
Experimental: as §1
Using the same procedure as stated in Example 1, compound (I) was evaluated with 12 albino rabbits (male; body weight 2 to 3 kg, native kind). As the test medicaments, aqueous 0.5 w/v % and 0.25 w/v % compound (I) HCl solutions prepared according to Example 4 were used, as well as physiologic saline control solution.

rat = experiment: Rat acute toxicity; type: in vivo; settings: acute toxicity
Rat acute toxicity = type: in vivo; settings: in vivo
mouse = experiment: Mouse acute toxicity; type: in vivo; settings: acute toxicity
Mouse acute toxicity = type: in vivo; settings: in vivo

With `CC(C)(C)NCC(O)CSc1nc(-c2ccc(C(N)=O)s2)cs1` (centres unmarked) [compound (I) HCl] the “stability / precipitation of ophthalmic solution” value (“stability / precipitation” below) ([1]; 0.5 % (w/v), pH 5.5) was “very stable and no precipitation was observed”, the “Intra-ocular pressure (mean ± standard error)” value ([2]; 1 hour later) was 20.0 ± 0.9 mm Hg and the “Intra-ocular pressure (mean ± standard error)” value ([2]; 3 hours later) was 16.6 ± 1.0 mm Hg. For the same compound, the “Intra-ocular pressure (mean ± standard error)” value ([2]; 5 hours later) was 15.4 ± 0.9 mm Hg, the “Intra-ocular pressure (mean ± standard error)” value ([2]; 7 hours later) was 16.0 ± 1.3 mm Hg and the “Intra-ocular pressure (mean ± standard error)” value ([2]; 9 hours later) was 17.6 ± 1.2 mm Hg. For the same compound, the “Intra-ocular pressure (mean ± standard error)” value ([2]; 12 hours later) was 20.4 ± 0.7 mm Hg, the “Intra-ocular pressure (mean ± standard error)” value ([2]; 24 hours later) was 20.6 ± 0.8 mm Hg and the “Intra-ocular pressure (mean ± standard error)” value ([2]; before administration) was 20.8 ± 0.9 mm Hg. The “Intra-ocular pressure (mean ± standard error)” value ([3]; 0.25 w/v %, 0.5 hour later) was 20.7 ± 0.7 mm Hg, the “Intra-ocular pressure (mean ± standard error)” value ([3]; 0.25 w/v %, 1 hour later) was 20.2 ± 0.6 mm Hg and the “Intra-ocular pressure (mean ± standard error)” value ([3]; 0.25 w/v %, 2 hours later) was 19.8 ± 0.5 mm Hg. For the same compound, the “Intra-ocular pressure (mean ± standard error)” value ([3]; 0.25 w/v %, 3 hours later) was 20.1 ± 0.6 mm Hg, the “Intra-ocular pressure (mean ± standard error)” value ([3]; 0.25 w/v %, 5 hours later) was 22.1 ± 0.6 mm Hg and the “Intra-ocular pressure (mean ± standard error)” value ([3]; 0.25 w/v %, 7 hours later) was 22.9 ± 0.8 mm Hg. For the same compound, the “Intra-ocular pressure (mean ± standard error)” value ([3]; 0.25 w/v %, 9 hours later) was 21.0 ± 0.7 mm Hg, the “Intra-ocular pressure (mean ± standard error)” value ([3]; 0.25 w/v %, 24 hours later) was 22.2 ± 0.6 mm Hg and the “Intra-ocular pressure (mean ± standard error)” value ([3]; 0.25 w/v %, before administration) was 21.8 ± 0.5 mm Hg. The “Intra-ocular pressure (mean ± standard error)” value ([3]; 0.5 w/v %, 0.5 hour later) was 21.1 ± 0.8 mm Hg, the “Intra-ocular pressure (mean ± standard error)” value ([3]; 0.5 w/v %, 1 hour later) was 18.9 ± 0.9 mm Hg and the “Intra-ocular pressure (mean ± standard error)” value ([3]; 0.5 w/v %, 2 hours later) was 18.5 ± 0.9 mm Hg. For the same compound, the “Intra-ocular pressure (mean ± standard error)” value ([3]; 0.5 w/v %, 3 hours later) was 18.2 ± 0.8 mm Hg, the “Intra-ocular pressure (mean ± standard error)” value ([3]; 0.5 w/v %, 5 hours later) was 21.6 ± 0.8 mm Hg and the “Intra-ocular pressure (mean ± standard error)” value ([3]; 0.5 w/v %, 7 hours later) was 22.8 ± 0.8 mm Hg. For the same compound, the “Intra-ocular pressure (mean ± standard error)” value ([3]; 0.5 w/v %, 9 hours later) was 22.2 ± 0.8 mm Hg, the “Intra-ocular pressure (mean ± standard error)” value ([3]; 0.5 w/v %, 24 hours later) was 22.5 ± 0.8 mm Hg and the “Intra-ocular pressure (mean ± standard error)” value ([3]; 0.5 w/v %, before administration) was 22.5 ± 0.6 mm Hg.

In the case of `CC(C)(C)NCC(O)CSc1nc(-c2ccc(C(N)=O)s2)cs1` (centres unmarked) [compound (I) acetate], the “stability / precipitation” value ([1]; 0.1 % (w/v)) is reported as “very stable and no precipitation was observed”.

In the case of `CC(C)(C)NCC(O)CSc1nc(-c2ccc(C(N)=O)s2)cs1` (centres unmarked) [compound (I) maleate], the “stability / precipitation” value ([1]; 0.25 % (w/v), pH 6.0) is reported as “very stable and no precipitation was observed”.

For `CC(C)(C)NCC(O)CSc1nc(-c2ccc(C(N)=O)s2)cs1` (centres unmarked) [compound (I), 2-(3-tert.-butylamino-2-hydroxypropylthio)-4-(5-carbamoyl-2-thienyl)-thiazole], the toxic signs (rat) was “no animals showed particular troublesome symptoms”, the LD50 (Rat acute toxicity; ip, intraperitoneal) was 340 mg/kg and the LD50 (Rat acute toxicity; oral) was greater than 3000 mg/kg. For the same compound, the toxic signs (mouse) was “no animals showed particular troublesome symptoms”, the LD50 (Mouse acute toxicity; ip, intraperitoneal) was 500 mg/kg and the LD50 (Mouse acute toxicity; oral) was greater than 5000 mg/kg.
